# Counter-ions that a name gives are not always drawn.
# What was measured:
# Type in all cases: physicochemical
# [1] = Solid form stability on vacuum drying (XRPD)
# Method: HCl Pattern 1: Formula I free base (ca. 500 mg) was suspended in nitromethane (50 volumes, 25 mL) with stirring. HCl (1M in THF; 1.2 equivalents; 1.65 mL) was added. The suspension was subjected to heating/cooling cycles between RT and 50° C., 4 hours at each condition for one week. […] The solid was isolated by vacuum filtration and dried under vacuum at RT for 16 hours.
# [2] = Stability at 40° C./75% RH (XRPD after storage); conditions: 3 weeks storage, by XRPD
# [3] = GVS (gravimetric vapor sorption) moisture sorption isotherm
# Method: Sorption isotherms were obtained using a SMS DVS Intrinsic moisture sorption analyser, controlled by DVS Intrinsic Control software v1.0.0.30. The sample temperature was maintained at 25° C. by the instrument controls. The humidity was controlled by mixing streams of dry and wet nitrogen, with a total flow rate of 200 mL.min−1 The relative humidity was measured by a calibrated Rotronic probe (dynamic range of 1.0-100% RH), located near the sample. The weight change (mass relaxation) of the sample as a function of % RH was constantly monitored by the microbalance (accuracy±0.005 mg). Approximately 5-20 mg of sample was placed in a tared mesh stainless steel basket under ambient conditions. The sample was loaded and unloaded at 40% RH and 25° C. (typical room conditions). A moisture sorption isotherm was performed as outlined below (2 scans giving 1 complete cycle). The standard isotherm was performed at 25° C. at 10% RH intervals over a 0-90% RH range. Data analysis was undertaken in Microsoft Excel using DVS Analysis Suite v6.0.0.7.
# [4] = VH-XRPD (variable humidity XRPD) form stability
# Excerpt: Variable humidity XRPD analysis was undertaken in order to determine if two hydrated species were present. […] On increasing the humidity, the material started to re-hydrate from 13% RH, and reverted completely back to HCl Pattern 2 by 45% RH. […] Only one XRPD pattern was observed upon dehydration and it is not possible to conclude whether this is a totally anhydrous or partially hydrated form.
smiles,measurement,setting,value
Nc1nc2cc(-c3ccc4ncc(C(=O)N5CCOCC5)n4c3)ccc2o1 [HCl Pattern 1],Form stability on drying under vacuum at RT for 16 hours (XRPD),[1],partially reverted to the free base
Nc1nc2cc(-c3ccc4ncc(C(=O)N5CCOCC5)n4c3)ccc2o1 [HCl Pattern 2],Stability at 40° C./75% RH,[2],No significant changes observed by XRPD after 3 weeks storage
same,GVS reversible uptake,"[3]; between 40-90% RH, 25° C.",Reversible uptake of ca. 6 wt % between 40-90% RH.
same,GVS: RH to which the form appeared stable,"[3]; dehydration observed below, rehydration by 40%",≥ 30 % RH
same,GVS water content at the end of the experiment,[3]; end of GVS experiment,10.6 wt %
same,"GVS water content at the end of the experiment, equivalents",[3]; end of GVS experiment,3.0 eqs
same,VH-XRPD: RH below which the material starts to change,[4]; full conversion to HCl Pattern 3 at 0.5% RH,"The material starts to change below 25% RH, with full conversion to HCl"
same,VH-XRPD: RH to which the form is stable,[4]; then starts to change to HCl Pattern 3,≥ 14 % RH
